Laboratory results taken from patent publication US20110178072A1, “STEREOSPECIFICITY OF METHYLSULFINYL REDUCTION” (priority 2008, published 2011).

What was measured:
Format in all cases: cell-based, human
[1] = test system: MsrA-knockdown SK-Hep1 cells; assay: Growth of MsrA-knockdown SK-Hep1 cells on Met and Met sulfoxide media; details: 0.1 mM, 96 hours
Experimental: Proliferation Assay—Cell growth was quantified using colorimetric MTS assay (Promega). Cells in regular DMEM medium were plated in 96-well plates at 5×10^3 cells/well, washed with PBS, and specialized DMEM media were added that contained Met, Met-SO, Met-RO, or Met-RSO 24 hours after plating. To assay for cell proliferation, a tetrazolium compound [3-(4,5-dimethylthiazol-2-yl)-5-(3-carboxymethoxyphenyl)-2-(4-sulfophenyl)-2H-tetrazolium, inner salt; MTS] and an electron coupling reagent (phenazine methosulfate; PMS) were mixed according to the manufacturer's protocol and then 20 μL of the mixture were added to 100 μL of phenol red-excluded media that further replaced cell culture media. After 90 minutes of incubation at 37° C. in the atmosphere of 5% CO2, cell proliferation was measured at indicated time periods from 0 to 96 hours at 450 nm in a plate reader. Direct counting of viable cells using 0.2% trypan blue was done in 6-well plates. Knockdown of MsrA in SK-Hep1 cells by siRNA—Double stranded siRNAs (Dharmacon) for targeting human MsrA mRNA were used to knockdown this gene in SK-Hep1 cells. Cells were transfected with siRNA by using DharmaFECT™ Transfection Reagent (Dharmacon) according to the manufacturer's protocol. Proliferation of these cells was assayed 60 hours after transfection in comparison with control transfected cells.

CBS = assay: Western blot analysis of CBS in SK-Hep1 cells grown on Met and Met sulfoxide media; details: 0.1 mM
Experimental: Analysis of SK-Hep1 and fRMsr-transfected SK-Hep1 cells—SK-Hep1 and fRMsr-transfected SK-Hep1 cells were plated in 6-well plates at 7.5×10^4 cells/well in regular DMEM medium. The medium was changed to Met-free DMEM supplemented with either Met or individual Met sulfoxides at 24 hours after plating. Cells were then collected every 24 hours until 96 hours. Protein concentration was measured by the Bradford assay and the samples were probed by standard immunoblot assays with polyclonal MsrA (kindly provided by Bertrand Friguet), cystathionine beta synthase (CBS) (kindly provided by Ruma Banerjee), and activating transcription factor 3 (ATF3) (Santa Cruz Biotechnology) antibodies.

SK-Hep1 cells = assay: Growth and morphology of SK-Hep1 cells in Met-free DMEM supplemented with Met or Met sulfoxides (MTS proliferation assay, microscopy); details: for Growth of SK-Hep1 cells: Met-free DMEM supplemented with 0.1 mM of the compound; for Morphology of SK-Hep1 cells: after 96 hours on medium with 0.1 mM of the compound
Experimental: Cell culture—SK-Hep1 (ATCC: HTB-52™) and fRMsr-transfected SK-Hep1 cells were cultured in DMEM or Met-free DMEM (GIBCO) media, supplemented with 0.1 mM Met, 0.1 mM Met-RO, 0.1 mM Met-SO, or 0.1 mM Met-RSO. […] Thus, 0.1 mM Met sulfoxides were used in the experiments described below. Cell culture experiments, with the exception of a proliferation assay, were carried out in 6-well plates, and cells were maintained at 37° C. in a 5% CO2 atmosphere. Proliferation Assay—Cell growth was quantified using colorimetric MTS assay (Promega). Cells in regular DMEM medium were plated in 96-well plates at 5×10^3 cells/well, washed with PBS, and specialized DMEM media were added that contained Met, Met-SO, Met-RO, or Met-RSO 24 hours after plating. To assay for cell proliferation, a tetrazolium compound [3-(4,5-dimethylthiazol-2-yl)-5-(3-carboxymethoxyphenyl)-2-(4-sulfophenyl)-2H-tetrazolium, inner salt; MTS] and an electron coupling reagent (phenazine methosulfate; PMS) were mixed according to the manufacturer's protocol and then 20 μL of the mixture were added to 100 μL of phenol red-excluded media that further replaced cell culture media. After 90 minutes of incubation at 37° C. in the atmosphere of 5% CO2, cell proliferation was measured at indicated time periods from 0 to 96 hours at 450 nm in a plate reader. Direct counting of viable cells using 0.2% trypan blue was done in 6-well plates. Microscopy—A Nikon TE-300 Widefield Microscope was used to prepare images of SK-Hep1 cells grown on different Met and Met sulfoxide media. Microscopy analyses were carried out in the University of Nebraska Microscopy Core Facility.

selenoproteins = assay: 75Se metabolic labeling of SK-Hep1 cells grown on Met and Met sulfoxide media; details: 0.1 mM of each amino acid
Experimental: ^75 Se Metabolic labeling—SK-Hep1 cells were plated in 6-well plates at 7.5×10^4 cells/well in 1.5 mL of regular DMEM medium. After 24 hours, cells were washed with PBS and the medium was changed to modified DMEM media containing Met, Met-SO, Met-RO, or Met-RSO (0.1 mM of each amino acid). 0.01 mCi of freshly neutralized [^75Se]selenious acid (specific activity 1,000 Ci/mmol, University of Missouri Research Reactor) was added in each well at 48 hours after changing the medium and cells were incubated at 37° C. for 24 hours in 5% CO2 atmosphere, followed by harvesting the cells. Cell extracts (30 μg of total protein) were electrophoresed on 10% Bis-Tris gels and transferred onto PVDF membranes (Invitrogen). The ^75Se radioactivity pattern was visualized by using a PhosphorImager (GE Health Care).

Structure (SMILES) | Growth of MsrA-deficient cells [1] | Expression of CBS (CBS; SK-Hep1 cells) | Expression of CBS (CBS; fRMsr-expressing SK-Hep1 cells) | Growth of SK-Hep1 cells (SK-Hep1 cells) | Morphology of SK-Hep1 cells (SK-Hep1 cells) | Selenoprotein patterns (75Se labeling) (selenoproteins)
C[S@@+]([O-])CC[C@H](N)C(=O)O [Met-RO, methionine-R-sulfoxide] | grew neither | reduced expression | normal CBS levels | did not support growth | long and narrow | No difference was observed
C[S@+]([O-])CC[C@H](N)C(=O)O [Met-SO, methionine-S-sulfoxide] | grew neither | CBS levels were decreased |  | could also proliferate | resembled those maintained in the presence of Met | No difference was observed
